# Patent US10392391B2 (Vertex Pharmaceuticals Incorporated, priority 2012, dated 2019)
# Like-named read-outs stand apart in the source and are kept apart here.
# Biological target: ATR kinase (full-length ATR) (Homo sapiens (Human), UniProt Q13535)
# Experiment: ATR inhibition assay (radioactive-phosphate incorporation)
# Assay type: biochemical
# Experimental: Compounds were screened for their ability to inhibit ATR kinase using a radioactive-phosphate incorporation assay. Assays were carried out in a mixture of 50 mM Tris/HCl (pH 7.5), 10 mM MgCl2 and 1 mM DTT. Final substrate concentrations were 10 μM [γ-33P]ATP (3mCi 33P ATP/mmol ATP, Perkin Elmer) and 800 μM target peptide ([…]) (SEQ ID NO:1).
# Assays were carried out at 25° C. in the presence of 5 nM full-length ATR. An assay stock buffer solution was prepared containing all of the reagents listed above, with the exception of ATP and the test compound of interest. 13.5 μL of the stock solution was placed in a 96 well plate followed by addition of 2 μL of DMSO stock containing serial dilutions of the test compound (typically starting from a final concentration of 15 μM with 3-fold serial dilutions) in duplicate (final DMSO concentration 7%). The plate was pre-incubated for 10 minutes at 25° C. and the reaction initiated by addition of 15 μL [γ-33P]ATP (final concentration 10 μM).
# The reaction was stopped after […] by the addition of 30 μL 0.1M phosphoric acid containing 2 mM ATP. A multiscreen phosphocellulose filter 96-well plate (Millipore, Cat no. MAPHN0B50) was pretreated with 100 μL 0.2M phosphoric acid prior to the addition of […] of the stopped assay mixture. The plate was washed with 5×200 μL 0.2M phosphoric acid. After drying, 100 μL Optiphase ‘SuperMix’ liquid scintillation cocktail (Perkin Elmer) was added to the well prior to scintillation counting (1450 Microbeta Liquid Scintillation Counter, Wallac).
# After removing mean background values for all of the data points, Ki(app) data were calculated from non-linear regression analysis of the initial rate data using the Prism software package (GraphPad Prism version 3.0cx for Macintosh, GraphPad Software, San Diego Calif., USA).
# [1] = Ki(app), 5 nM full-length ATR, 10 μM ATP, 25° C.
# Sequence of ATR kinase (full-length ATR) (Q13535 whole entry): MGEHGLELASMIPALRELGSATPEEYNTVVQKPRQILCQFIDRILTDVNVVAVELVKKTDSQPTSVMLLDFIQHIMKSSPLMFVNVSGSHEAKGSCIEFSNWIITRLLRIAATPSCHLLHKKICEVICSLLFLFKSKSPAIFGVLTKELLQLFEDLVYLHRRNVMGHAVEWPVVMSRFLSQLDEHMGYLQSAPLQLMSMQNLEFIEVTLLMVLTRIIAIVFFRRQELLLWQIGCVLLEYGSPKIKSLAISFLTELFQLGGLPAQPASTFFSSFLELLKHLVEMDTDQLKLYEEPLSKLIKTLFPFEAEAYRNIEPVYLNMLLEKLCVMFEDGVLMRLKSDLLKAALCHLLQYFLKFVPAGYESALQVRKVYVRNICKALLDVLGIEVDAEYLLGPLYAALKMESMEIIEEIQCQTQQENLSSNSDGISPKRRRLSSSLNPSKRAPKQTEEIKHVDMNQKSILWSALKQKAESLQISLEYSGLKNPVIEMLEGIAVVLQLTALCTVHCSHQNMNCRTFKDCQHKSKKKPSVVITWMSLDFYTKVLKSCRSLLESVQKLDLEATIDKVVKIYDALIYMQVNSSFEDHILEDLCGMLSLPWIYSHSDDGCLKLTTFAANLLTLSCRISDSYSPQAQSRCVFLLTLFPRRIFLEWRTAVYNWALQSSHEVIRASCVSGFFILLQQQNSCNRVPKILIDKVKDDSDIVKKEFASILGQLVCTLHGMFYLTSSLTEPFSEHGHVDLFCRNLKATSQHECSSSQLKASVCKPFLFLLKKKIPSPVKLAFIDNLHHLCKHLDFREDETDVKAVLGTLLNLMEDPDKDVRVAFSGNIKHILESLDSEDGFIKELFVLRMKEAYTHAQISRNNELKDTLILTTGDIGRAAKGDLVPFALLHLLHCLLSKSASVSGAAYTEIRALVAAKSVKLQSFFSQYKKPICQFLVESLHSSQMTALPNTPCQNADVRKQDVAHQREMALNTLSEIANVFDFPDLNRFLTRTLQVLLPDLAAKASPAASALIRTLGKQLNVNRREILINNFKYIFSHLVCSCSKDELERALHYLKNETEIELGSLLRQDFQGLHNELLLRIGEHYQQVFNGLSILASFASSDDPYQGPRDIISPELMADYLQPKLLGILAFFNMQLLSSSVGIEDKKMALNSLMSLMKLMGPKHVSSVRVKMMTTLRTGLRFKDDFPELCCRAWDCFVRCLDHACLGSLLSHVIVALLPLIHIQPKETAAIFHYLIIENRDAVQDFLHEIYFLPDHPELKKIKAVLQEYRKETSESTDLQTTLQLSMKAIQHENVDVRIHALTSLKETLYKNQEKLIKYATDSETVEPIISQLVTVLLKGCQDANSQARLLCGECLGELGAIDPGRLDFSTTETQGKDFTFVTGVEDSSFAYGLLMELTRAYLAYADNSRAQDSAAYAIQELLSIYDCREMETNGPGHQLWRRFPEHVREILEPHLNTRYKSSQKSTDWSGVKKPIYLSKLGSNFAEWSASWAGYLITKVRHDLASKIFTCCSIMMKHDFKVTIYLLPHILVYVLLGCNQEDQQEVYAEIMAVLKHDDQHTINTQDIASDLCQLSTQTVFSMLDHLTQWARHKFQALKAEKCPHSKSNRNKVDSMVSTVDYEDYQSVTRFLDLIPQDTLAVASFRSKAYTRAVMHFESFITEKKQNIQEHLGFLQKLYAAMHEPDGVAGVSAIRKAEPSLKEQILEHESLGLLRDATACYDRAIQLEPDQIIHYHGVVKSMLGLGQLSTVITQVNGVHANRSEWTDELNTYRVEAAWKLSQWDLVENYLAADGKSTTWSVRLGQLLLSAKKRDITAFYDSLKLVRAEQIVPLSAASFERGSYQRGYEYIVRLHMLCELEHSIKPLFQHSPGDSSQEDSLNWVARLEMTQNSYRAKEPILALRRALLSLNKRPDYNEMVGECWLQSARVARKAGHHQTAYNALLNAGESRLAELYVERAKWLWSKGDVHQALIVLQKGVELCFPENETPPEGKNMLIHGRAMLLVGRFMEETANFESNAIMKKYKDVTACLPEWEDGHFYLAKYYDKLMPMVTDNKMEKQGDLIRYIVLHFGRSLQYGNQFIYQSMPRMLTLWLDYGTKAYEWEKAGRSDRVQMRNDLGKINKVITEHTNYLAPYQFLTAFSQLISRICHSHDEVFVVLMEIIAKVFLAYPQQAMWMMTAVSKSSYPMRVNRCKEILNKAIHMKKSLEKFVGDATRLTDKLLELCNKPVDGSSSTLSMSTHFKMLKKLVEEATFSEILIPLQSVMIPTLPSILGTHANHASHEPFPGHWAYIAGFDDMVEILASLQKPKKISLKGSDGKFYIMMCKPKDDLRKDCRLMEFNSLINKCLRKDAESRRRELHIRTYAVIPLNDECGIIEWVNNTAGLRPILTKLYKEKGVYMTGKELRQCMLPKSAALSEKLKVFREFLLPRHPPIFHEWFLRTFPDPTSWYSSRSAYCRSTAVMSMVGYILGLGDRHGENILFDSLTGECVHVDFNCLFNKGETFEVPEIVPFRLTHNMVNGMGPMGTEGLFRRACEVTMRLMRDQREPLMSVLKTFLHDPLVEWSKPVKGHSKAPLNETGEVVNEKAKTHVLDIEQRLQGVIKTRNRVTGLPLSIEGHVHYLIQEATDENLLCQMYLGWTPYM
SMILES,Ki [1] [µM],Ki [µM]
"CNc1cc(OC)c(NC(=O)c2c(N)nn3cc(F)cnc23)cn1 [I-O-90, 2-amino-6-fluoro-N-(4-methoxy-6-(methylamino)pyridin-3-yl)pyrazolo[1,5-a]pyrimidine-3-carboxamide]",0.01 to 1,
"Nc1nn2cc(F)cnc2c1C(=O)Nc1cnccc1N1CCN2CCC[C@H]2C1 [I-N-21, (S)-2-amino-6-fluoro-N-(4-(hexahydropyrrolo[1,2-a]pyrazin-2(1H)-yl)pyridin-3-yl)pyrazolo[1,5-a]pyrimidine-3-carboxamide]",0.01 to 1,
"CN1C2CCC1CN(C(=O)C1CCN(c3c(F)cncc3NC(=O)c3c(N)nn4cc(F)cnc34)CC1)C2 [I-G-52, 2-amino-6-fluoro-N-(5-fluoro-4-(4-(8-methyl-3,8-diazabicyclo[3.2.1]octane-3-carbonyl)piperidin-1-yl)pyridin-3-yl)pyrazolo[1,5-a]pyrimidine-3-carboxamide]",0.01 to 1,
"CN(C)CCCNC(=O)C1CCN(c2c(F)cncc2NC(=O)c2c(N)nn3cc(F)cnc23)CC1 [I-G-26, 2-amino-N-(4-(4-((3-(dimethylamino)propyl)carbamoyl)piperidin-1-yl)-5-fluoropyridin-3-yl)-6-fluoropyrazolo[1,5-a]pyrimidine-3-carboxamide]",0.01 to 1,
"COC(=O)C1CCN(c2ccncc2NC(=O)c2c(N)nn3cc(Cl)cnc23)CC1 [I-N-74, methyl-1-(3-(2-amino-6-chloropyrazolo[1,5-a]pyrimidine-3-carboxamido)pyridin-4-yl)piperidine-4-carboxylate]",0.01 to 1,
"CS(=O)(=O)N1CCN(c2ccncc2NC(=O)c2c(N)nn3cc(F)cnc23)CC1 [I-N-178, 2-amino-6-fluoro-N-(4-(4-(methylsulfonyl)piperazin-1-yl)pyridin-3-yl)pyrazolo[1,5-a]pyrimidine-3-carboxamide]",0.01 to 1,
"CN(C)CC1(O)CCN(c2ccncc2NC(=O)c2c(N)nn3cc(Cl)cnc23)CC1 [I-N-36, 2-amino-6-chloro-N-(4-(4-((dimethylamino)methyl)-4-hydroxypiperidin-1-yl)pyridin-3-yl)pyrazolo[1,5-a]pyrimidine-3-carboxamide]",,1 to 5
"Nc1nn2cc(Cl)cnc2c1C(=O)Nc1cnccc1N1C2CCC1CC(O)C2 (stereo not drawn) [I-N-42, 2-amino-6-chloro-N-(4-(3-hydroxy-8-azabicyclo[3.2.1]octan-8-yl)pyridin-3-yl)pyrazolo[1,5-a]pyrimidine-3-carboxamide]",0.01 to 1,
"CCC(C#N)c1cnc2c(C(=O)Nc3cnccc3OC)c(N)nn2c1 (stereo not drawn) [I-O-20, 2-amino-6-(1-cyanopropyl)-N-(4-methoxypyridin-3-yl)pyrazolo[1,5-a]pyrimidine-3-carboxamide]",0.01 to 1,
"Cc1nnc(C2CCN(c3ccncc3NC(=O)c3c(N)nn4cc(F)cnc34)CC2)o1 [I-N-265, 2-amino-6-fluoro-N-(4-(4-(5-methyl-1,3,4-oxadiazol-2-yl)piperidin-1-yl)pyridin-3-yl)pyrazolo[1,5-a]pyrimidine-3-carboxamide]",0.01 to 1,
"Nc1nn2cc(F)cnc2c1C(=O)Nc1cncc(F)c1N1CCC(C(=O)N2CCN3CC[C@@H]2C3)CC1 [I-G-71, N-(4-(4-((5R)-1,4-diazabicyclo[3.2.1]octane-4-carbonyl)piperidin-1-yl)-5-fluoropyridin-3-yl)-2-amino-6-fluoropyrazolo[1,5-a]pyrimidine-3-carboxamide]",0.01 to 1,
"CN(C)CC1CCN(c2ccncc2NC(=O)c2c(N)nn3cc(F)cnc23)CC1 [I-N-267, 2-amino-N-(4-(4-((dimethylamino)methyl)piperidin-1-yl)pyridin-3-yl)-6-fluoropyrazolo[1,5-a]pyrimidine-3-carboxamide]",0.01 to 1,
"Nc1nn2cc(Cl)cnc2c1C(=O)Nc1cnccc1OCCN1CCOCC1 [I-O-60, 2-amino-6-chloro-N-(4-(2-morpholinoethoxy)pyridin-3-yl)pyrazolo[1,5-a]pyrimidine-3-carboxamide]",0.01 to 1,
"NCC1CCN(c2ccncc2NC(=O)c2c(N)nn3cc(Cl)cnc23)CC1 [I-N-91, 2-amino-N-(4-(4-(aminomethyl)piperidin-1-yl)pyridin-3-yl)-6-chloropyrazolo[1,5-a]pyrimidine-3-carboxamide]",< 0.01,
"Nc1nn2cc(F)cnc2c1C(=O)Nc1cncc(F)c1N1CCC(c2nccs2)CC1 [I-N-184, 2-amino-6-fluoro-N-(5-fluoro-4-(4-(thiazol-2-yl)piperidin-1-yl)pyridin-3-yl)pyrazolo[1,5-a]pyrimidine-3-carboxamide]",0.01 to 1,
"Nc1nn2cc(Cl)cnc2c1C(=O)Nc1cnccc1N1CCn2cncc2C1 [I-N-75, 2-amino-6-chloro-N-(4-(5,6-dihydroimidazo[1,5-a]pyrazin-7(8H)-yl)pyridin-3-yl)pyrazolo[1,5-a]pyrimidine-3-carboxamide]",0.01 to 1,
"COC(=O)N1CCN(c2c(F)cncc2NC(=O)c2c(N)nn3cc(F)cnc23)CC1 [I-N-261, methyl-4-(3-(2-amino-6-fluoropyrazolo[1,5-a]pyrimidine-3-carboxamido)-5-fluoropyridin-4-yl)piperazine-1-carboxylate]",0.01 to 1,
"Nc1nn2cc(F)cnc2c1C(=O)Nc1cnccc1N1CCC(C(=O)N2CCC3(COC3)C2)CC1 [I-G-84, N-(4-(4-(2-oxa-6-azaspiro[3.4]octane-6-carbonyl)piperidin-1-yl)pyridin-3-yl)-2-amino-6-fluoropyrazolo[1,5-a]pyrimidine-3-carboxamide]",0.01 to 1,
"Nc1nn2cc(F)cnc2c1C(=O)Nc1cnccc1-c1ccc(C(=O)N2CCN3CCC2CC3)cc1 [I-C-48, N-(4-(4-(1,4-diazabicyclo[3.2.2]nonane-4-carbonyl)phenyl)pyridin-3-yl)-2-amino-6-fluoropyrazolo[1,5-a]pyrimidine-3-carboxamide]",0.01 to 1,
"CN1CC2(CCN(c3c(F)cncc3NC(=O)c3c(N)nn4cc(F)cnc34)CC2)OC1=O [I-N-229, 2-amino-6-fluoro-N-(5-fluoro-4-(3-methyl-2-oxo-1-oxa-3,8-diazaspiro[4.5]decan-8-yl)pyridin-3-yl)pyrazolo[1,5-a]pyrimidine-3-carboxamide]",0.01 to 1,
"Nc1nn2cc(F)cnc2c1C(=O)Nc1cncc(F)c1N1CCN2CCOC[C@H]2C1 [I-N-135, (R)-2-amino-6-fluoro-N-(5-fluoro-4-(hexahydropyrazino[2,1-c][1,4]oxazin-8(1H)-yl)pyridin-3-yl)pyrazolo[1,5-a]pyrimidine-3-carboxamide]",0.01 to 1,
"CN1CCC(Oc2ccncc2NC(=O)c2c(N)nn3cc(F)cnc23)CC1 [I-O-12, 2-amino-6-fluoro-N-(4-((1-methylpiperidin-4-yl)oxy)pyridin-3-yl)pyrazolo[1,5-a]pyrimidine-3-carboxamide]",0.01 to 1,
"CC(C)(C)Oc1ccncc1NC(=O)c1c(N)nn2cc(F)cnc12 [I-O-88, 2-amino-N-(4-(tert-butoxy)pyridin-3-yl)-6-fluoropyrazolo[1,5-a]pyrimidine-3-carboxamide]",0.01 to 1,
"CCn1cncc1-c1ccncc1NC(=O)c1c(N)nn2cc(F)cnc12 [I-C-80, 2-amino-N-(4-(1-ethyl-1H-imidazol-5-yl)pyridin-3-yl)-6-fluoropyrazolo[1,5-a]pyrimidine-3-carboxamide]",0.01 to 1,
"Nc1nn2cc(F)cnc2c1C(=O)Nc1cnccc1N1CC(=O)N2CCCC2C1 (stereo not drawn) [I-N-222, 2-amino-6-fluoro-N-(4-(4-oxohexahydropyrrolo[1,2-a]pyrazin-2(1H)-yl)pyridin-3-yl)pyrazolo[1,5-a]pyrimidine-3-carboxamide]",0.01 to 1,
"CN1CCN(C(=O)C2CCN(c3c(Cl)cncc3NC(=O)c3c(N)nn4cc(F)cnc34)CC2)CC1 [I-G-3, 2-amino-N-(5-chloro-4-(4-(4-methylpiperazine-1-carbonyl)piperidin-1-yl)pyridin-3-yl)-6-fluoropyrazolo[1,5-a]pyrimidine-3-carboxamide]",0.01 to 1,
"Nc1nn2cc(F)cnc2c1C(=O)Nc1cnccc1-c1ccc(C(=O)N2CCC(N3CCC3)CC2)nc1 [I-C-54, 2-amino-N-(6-(4-(azetidin-1-yl)piperidine-1-carbonyl)-[3,4′-bipyridin]-3′-yl)-6-fluoropyrazolo[1,5-a]pyrimidine-3-carboxamide]",0.01 to 1,
"Nc1nn2cc(F)cnc2c1C(=O)Nc1cnccc1-c1ccc(C(=O)N2CCNCC2)cc1 [I-C-44, 2-amino-6-fluoro-N-(4-(4-(piperazine-1-carbonyl)phenyl)pyridin-3-yl)pyrazolo[1,5-a]pyrimidine-3-carboxamide]",0.01 to 1,
"COc1ccncc1NC(=O)c1c(N)nn2cc(C(C)C#N)cnc12 (stereo not drawn) [I-O-21, 2-amino-6-(1-cyanoethyl)-N-(4-methoxypyridin-3-yl)pyrazolo[1,5-a]pyrimidine-3-carboxamide]",0.01 to 1,
"Nc1nn2cc(F)cnc2c1C(=O)Nc1cncc(F)c1N1CCC(C(=O)N2CC(N3CCCCC3)C2)CC1 [I-G-57, 2-amino-6-fluoro-N-(5-fluoro-4-(4-(3-(piperidin-1-yl)azetidine-1-carbonyl)piperidin-1-yl)pyridin-3-yl)pyrazolo[1,5-a]pyrimidine-3-carboxamide]",0.01 to 1,
